Results reported in US20250282782A1, “PYRAZOLOPYRAZINE COMPOUNDS AS SHP2 INHIBITORS” (Genzyme Corporation, priority 2021, published 2025).

Target: human recombinant 6His-Nterm SHP2 full-length (Thr2-Arg593) (Homo sapiens (Human), UniProt Q06124)
Test: SHP2 phosphatase assay (DiFMUP substrate, activating peptide)
Format: biochemical
Procedure: Inhibition of SHP2 phosphatase activity was evaluated using human recombinant 6His-Nterm (SEQ ID NO: 1) SHP2 full-length (Thr2-Arg593, R&D system), NsCs bi-phosphorylated activating peptide (NH2-LN(pY)AQLWHA(PEG8)LTI(pY)ATIRRF-Amide.acetate (SEQ ID NO: 2), Thermofischer Scientific) and DiFMUP as surrogate phosphatase substrate (Molecular Probes). All reactions were performed at room temperature in 384-well black polystyrene non-binding plate (Corning) with the assay buffer (50 mM HEPES-NaOH pH 7.2, 100 mM NaCl, 0.5 mM EDTA, 0.001% Brij35 including 0.02% BSA and 1 mM DTT added extemporaneously). SHP2 was pre-incubated at least 10 min with the activating peptide (0.2 nM and 100 nM, respectively). 10 μL of this mixture was added to the assay plate, that already contained 15 nL of the compound (1000-0.05 nM). After 30 min pre-incubation, the enzymatic reaction was initiated by the addition of 5 μL DiFMUP in assay buffer without BSA (20 μM). The reaction was stopped by the addition of 15 μL sodium pervanadate solution (100 μM) after 45 min incubation. The fluorescence signal was measured at excitation and emission wavelengths of 350 nm and 450 nm, respectively, using a Pherastar instrument (BMG-LabTech). Percentage of inhibition (I %) were calculated from the fluorescence signal at 450 nm of the positive and negative control using the following formula: […]
Positive control (Max): corresponds to the maximum fluorescence signal obtained in the presence of 15 nL DMSO replacing the inhibitor in the pre-incubation step.
Negative control (Min): corresponds to the minimum signal obtained in the presence of 1 μM of RMC-4550, the structure of which is shown below:
The IC50 were then calculated from a dose-response curve of 10 concentrations of tested compound using the 4-parameter logistic model:
The parameters A and (A+C) are the lower and upper limits, B is the slope of the curve at the inflexion point, M parameter is the logarithm of the abscissa at the inflexion point, and X is the concentration of compound.

[1] = full-length SHP2 0.2 nM pre-activated with bi-phosphorylated peptide 100 nM, DiFMUP 20 μM, 10-concentration dose-response

Sequence of human recombinant 6His-Nterm SHP2 full-length (Thr2-Arg593) (Q06124 2-593): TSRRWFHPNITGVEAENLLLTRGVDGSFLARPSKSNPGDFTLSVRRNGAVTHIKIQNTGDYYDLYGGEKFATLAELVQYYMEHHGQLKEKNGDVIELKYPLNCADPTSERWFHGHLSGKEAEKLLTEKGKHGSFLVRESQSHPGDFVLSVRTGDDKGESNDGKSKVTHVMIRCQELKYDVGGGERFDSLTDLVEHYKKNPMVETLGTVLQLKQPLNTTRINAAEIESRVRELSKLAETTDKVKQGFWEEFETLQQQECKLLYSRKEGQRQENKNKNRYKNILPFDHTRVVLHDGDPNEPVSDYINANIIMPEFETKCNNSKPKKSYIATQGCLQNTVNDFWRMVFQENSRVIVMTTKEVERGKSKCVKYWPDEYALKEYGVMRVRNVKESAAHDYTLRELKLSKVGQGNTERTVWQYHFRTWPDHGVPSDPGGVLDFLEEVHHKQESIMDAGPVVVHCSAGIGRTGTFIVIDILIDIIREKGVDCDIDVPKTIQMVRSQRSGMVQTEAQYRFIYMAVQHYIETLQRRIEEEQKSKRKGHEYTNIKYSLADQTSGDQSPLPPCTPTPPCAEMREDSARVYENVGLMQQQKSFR

SMILES | IC50 (Table 11 summary) [nM] | IC50 [1] [nM]
COc1cc2c(cn1)CC1(CCN(c3nc(C)c(-c4cnn(C)c4C)n4nccc34)CC1)[C@@H]2N [Compound 132, (5S)-1′-[7-(1,5-dimethylpyrazol-4-yl)-6-methyl-pyrazolo[1,5-a]pyrazin-4-yl]-3-methoxy-spiro[5,7-dihydrocyclopenta[c]pyridine-6,4′-piperidine]-5-amine] | 34 | 34
Cc1nc(N2CCC3(CC2)Cc2ccncc2[C@H]3N)c2ccnn2c1-c1cnn(C)c1C [Compound 133, (7S)-1′-[7-(1,5-dimethylpyrazol-4-yl)-6-methyl-pyrazolo[1,5-a]pyrazin-4-yl]spiro[5,7-dihydrocyclopenta[c]pyridine-6,4′-piperidine]-7-amine] | 21 | 21
Cc1nc(N2CCC3(CC2)Cc2ncccc2[C@H]3N)c2c(CO)cnn2c1-c1ccccc1F [Compound 226, [4-[(5S)-5-aminospiro[5,7-dihydrocyclopenta[b]pyridine-6,4′-piperidine]-1′-yl]-7-(2-fluorophenyl)-6-methyl-pyrazolo[1,5-a]pyrazin-3-yl]methanol] | > 1000 | > 1000
